From US20010005752A1, “Fluorescent dyes (AIDA) for solid phase and solution phase screening” (priority 1998, published 2001)

What was measured:
[1] = Steady-state fluorescence spectroscopy (excitation and emission spectra); format: physicochemical; settings: for Emission range in parenthesis / Emission λmax / Excitation range in parenthesis / Excitation λmax: acetonitrile/2% DMSO
Procedure: Steady-state fluorescence measurements are performed on a SLM 8000C spectro-fluorometer equipped with JD490 photomultipliers and a 450 W Xenon Arclamp (SLM Instruments, Urbana, Ill.).
[…] Spectral bandwidths are set to 1 and 4 nm for excitation and emission, respectively. Spectra are recorded in single photon counting mode. Changes in lamp intensity are corrected with a quantum counter in the reference channel, measured in slow mode. Gain is set to x 100 with a high voltage (HV) of 640 V. Integration time is 2 seconds. For excitation spectra measurements, the emission wavelength is set to 397 nm and the sample is excited from 200 to 400 nm. For recording emission spectra, the sample is excited at 342 nm and the emission is recorded from 350 to 540 nm. The data are averaged over two scans.

[2] = UV-Vis absorption spectroscopy; format: physicochemical; settings: acetonitrile/2% DMSO
Procedure: UV-Vis absorption spectroscopy is performed on a Cary 1E spectrophotometer. […]
[…] […] From each stock solution, 5 dilutions with concentrations of 2.5 μm, 10 μM, 17 μM, 25 μm and 35 μM are made. UV-spectra of each dilution are recorded from 200 to 400 nm, using a quarz cuvette with a pathlength of 1 cm. […] A linear fit is carried out for each series of measurements. The extinction coefficient ε at 337 nm is given by the slope of the linear regression.

Structure (SMILES)	fluorescence emission (relative to 1,3-diaryl-1H-indazoles) [1]	Absorption λmax [2] [nm]	ε (at absorption λmax) [2] [M⁻¹ cm⁻¹]	Emission range in parenthesis [1]	Emission λmax [1] [nm]	Excitation range in parenthesis [1]	Excitation λmax [1] [nm]
O=C(O)c1ccc(-n2nc(-c3ccccc3)c3ccc4ccccc4c32)cc1 [4-(3-phenyl-benzo[g]indazol-1-yl)-benzoic acid, reference compound]	dramatically reduced	–	–	–	–	–	–
O=C(O)c1ccc(-n2nc(-c3ccc(Cl)cc3)c3ccc(Cl)cc32)cc1 [4g]	–	328	29157	350-450 nm	364	310-350 nm	328
COc1ccc(-c2nn(-c3ccc(C(=O)O)cc3)c3cc(OC)ccc23)cc1 [4h]	–	327	27650	370-600 nm	439	300-350 nm	330
Cc1ccc2c(-c3ccc([N+](=O)[O-])cc3)nn(-c3ccc(C(=O)O)cc3)c2c1 [4j]	–	358	24967	490-700 nm	565	340-420 nm	370
NC(=O)c1ccc(-c2nn(-c3ccc(C(=O)O)cc3)c3ccc([N+](=O)[O-])cc23)cc1 [4l, 4-[3-(4-carbamoyl-phenyl)-5-nitro-1H-indazol-1-yl]-benzoic Acid]	–	326	17252	450-620 nm	527	310-360 nm	331

More lines, now with the values ahead:

fluorescence emission (relative to 1,3-diaryl-1H-indazoles) [1]	Absorption λmax [2] [nm]	ε (at absorption λmax) [2] [M⁻¹ cm⁻¹]	Emission range in parenthesis [1]	Emission λmax [1] [nm]	Excitation range in parenthesis [1]	Excitation λmax [1] [nm]	Structure (SMILES)
–	328	22569	360-450 nm	396	300-340 nm	328	O=C(O)c1ccc(-n2nc(-c3ccccc3)c3ccccc32)cc1 [4a]
–	334	29152	360-500 nm	396	300-360 nm	335	O=C(O)c1ccc(-c2nn(-c3ccc(C(=O)O)cc3)c3ccccc23)cc1 [4b, 1,3-Bis-(4-carboxyphenyl)-1H-indazole]
–	332	30665	360-500 nm	393	300-360 nm	334	NC(=O)c1ccc(-c2nn(-c3ccc(C(=O)O)cc3)c3ccccc23)cc1 [4c, 4-[3-(4-carbamoyl-phenyl)-1H-indazol-1-yl]-benzoic acid]
–	334	33114	360-500 nm	396	300-360 nm	336	COC(=O)c1ccc(-c2nn(-c3ccc(C(=O)O)cc3)c3ccccc23)cc1 [4d]
–	354	25482	470-670 nm	554	320-400 nm	368	O=C(O)c1ccc(-n2nc(-c3ccc([N+](=O)[O-])cc3)c3ccccc32)cc1 [4f]
–	361	31261	470-670 nm	551	320-420 nm	374	O=C(O)c1ccc(-c2nn(-c3ccc([N+](=O)[O-])cc3)c3ccccc23)cc1 [4i]
–	328	22622	450-620 nm	524	320-360 nm	331	O=C(O)c1ccc(-c2nn(-c3ccc(C(=O)O)cc3)c3ccc([N+](=O)[O-])cc23)cc1 [4k, 4-[3-(4-carboxy-phenyl)-5-nitro-1H-indazol-1-yl]-benzoic Acid]
